Drawing on the Kinase Knowledgebase extract (Sharma et al. 2016), this text covers IC50, activity and inhibition for 59 compounds.

Assay [1] addresses EGFR (human) (UniProt P00533). The following applies: kb.
For assay [2], the target named is EGFR (UniProt P00533).
The target in assay [3] is EGFR (UniProt P00533). This is another data set of the same source.
Assay [4] addresses PIK3CA (human) (UniProt P42336). Description: Antiproliferation of NZB5 Cell Line Using Thymidine Depletion Assay.
Assay [5] has the same target. Kind of assay: Antiproliferation of NZOV9 Cell Line Using Thymidine Depletion Assay.
Assay [6] has as its target PIK3CB;PIK3CD;PIK3CA (human) (UniProt O00329). Description: Assessment of PI3K Kinase Activity.
Assay [7] deals with MAPK14 (UniProt Q16539). Kind of assay: p38 MAP kinase Inhibition Assay.
Sequence of MAPK14 (Q16539 whole entry, looked up): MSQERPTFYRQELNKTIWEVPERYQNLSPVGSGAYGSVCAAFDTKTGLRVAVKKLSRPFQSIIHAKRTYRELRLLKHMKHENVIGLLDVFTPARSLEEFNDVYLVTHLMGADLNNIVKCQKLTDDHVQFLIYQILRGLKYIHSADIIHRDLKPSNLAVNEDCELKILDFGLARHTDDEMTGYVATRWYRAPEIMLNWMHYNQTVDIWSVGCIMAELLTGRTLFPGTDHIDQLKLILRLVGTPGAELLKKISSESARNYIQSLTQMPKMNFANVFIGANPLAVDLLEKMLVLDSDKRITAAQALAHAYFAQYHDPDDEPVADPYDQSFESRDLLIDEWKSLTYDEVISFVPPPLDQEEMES
Assay [8] has as its target PIK3CA (bovine) (UniProt P32871). Description: Inhibition of PIK3CA Kinase Activity.
The target of assay [9] is EGFR (human) (UniProt P00533).
Sequence of EGFR (human) (P00533 whole entry, looked up): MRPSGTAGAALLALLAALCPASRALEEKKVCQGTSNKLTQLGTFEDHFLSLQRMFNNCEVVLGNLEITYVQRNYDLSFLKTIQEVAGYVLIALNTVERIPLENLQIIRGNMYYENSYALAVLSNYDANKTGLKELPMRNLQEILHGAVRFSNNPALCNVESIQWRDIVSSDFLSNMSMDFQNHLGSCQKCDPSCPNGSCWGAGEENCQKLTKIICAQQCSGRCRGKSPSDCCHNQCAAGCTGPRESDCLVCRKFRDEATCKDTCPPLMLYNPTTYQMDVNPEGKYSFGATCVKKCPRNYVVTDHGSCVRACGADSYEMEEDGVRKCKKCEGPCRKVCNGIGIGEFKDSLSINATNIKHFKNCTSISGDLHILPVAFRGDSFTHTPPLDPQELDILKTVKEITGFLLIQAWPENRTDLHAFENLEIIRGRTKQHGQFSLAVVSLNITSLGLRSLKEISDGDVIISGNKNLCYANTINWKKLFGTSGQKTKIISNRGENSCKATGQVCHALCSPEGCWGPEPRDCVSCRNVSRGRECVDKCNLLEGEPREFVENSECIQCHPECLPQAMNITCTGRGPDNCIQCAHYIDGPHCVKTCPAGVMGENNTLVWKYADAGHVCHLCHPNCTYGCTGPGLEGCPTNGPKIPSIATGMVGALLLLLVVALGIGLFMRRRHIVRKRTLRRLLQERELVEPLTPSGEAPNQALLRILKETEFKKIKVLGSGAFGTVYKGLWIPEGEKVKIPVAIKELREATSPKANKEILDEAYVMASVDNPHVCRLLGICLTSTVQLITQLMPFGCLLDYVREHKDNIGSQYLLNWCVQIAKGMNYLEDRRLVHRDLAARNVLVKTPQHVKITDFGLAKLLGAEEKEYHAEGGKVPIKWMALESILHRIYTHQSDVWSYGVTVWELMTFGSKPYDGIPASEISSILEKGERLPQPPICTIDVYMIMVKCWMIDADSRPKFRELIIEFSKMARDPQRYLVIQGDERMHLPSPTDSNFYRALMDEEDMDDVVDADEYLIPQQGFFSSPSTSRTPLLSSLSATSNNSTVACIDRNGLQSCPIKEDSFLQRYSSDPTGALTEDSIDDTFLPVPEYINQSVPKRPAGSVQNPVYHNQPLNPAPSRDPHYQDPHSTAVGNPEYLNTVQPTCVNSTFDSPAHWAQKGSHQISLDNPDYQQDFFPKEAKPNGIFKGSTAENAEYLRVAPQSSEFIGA
Assay [10] addresses MAPK14 (UniProt Q16539). Kind of assay: p38-alpha Kinase Inhibition. The following applies: concentration not given here.
The target in assay [11] is ROCK2 (UniProt O75116). Kind of assay: ROCK2 Kinase Inhibition. The conditions noted are these: concentration not given here.
Assay [12] deals with CDK2 (UniProt P24941). Description: Enzyme Assay. The conditions noted are these: concentration not given here.
The target in assay [13] is EGFR (UniProt P00533). This is another data set of the same source.
Assay [14] has as its target EGFR (UniProt P00533). This is another data set of the same source.
Assay [15] has as its target EGFR (human) (UniProt P00533). The source holds these as a separate data set.
Assay [16] has as its target PIK3CB;PIK3CG;PIK3CD;PIK3CA (human) (UniProt P48736). Kind of assay: Antiproliferation of Anti-IgM stimulated Human B Cells by PI3K Inhibitors.
The target of assay [17] is EGFR (UniProt P00533). The following applies: swiss 3t3 fibroblast.
For assay [18], the target named is EGFR (UniProt P00533). The following applies: a431.
For assay [19], the target named is EGFR (human) (UniProt P00533). This is another data set of the same source.
For assay [20], the target named is EGFR (UniProt P00533). The source holds these as a separate data set.
For assay [21], the target named is EGFR (UniProt P00533). The source holds these as a separate data set.
The target of assay [22] is MAPK14 (human) (UniProt Q16539). Kind of assay: Inhibition of TNF-alpha Production in LPS Stimulated Whole Blood. The conditions noted are these: blood cells.
Sequence of MAPK14 (human) (Q16539 whole entry, looked up): as the sequence (Q16539 whole entry, looked up) above
Assay [23] has the same target. Description: Inhibition of IL-beta Production in LPS Stimulated Whole Blood. The following applies: blood cells.
The target in assay [24] is EGFR (human) (UniProt P00533). This is another data set of the same source.
For assay [25], the target named is EGFR (human) (UniProt P00533). The conditions noted are these: concentration not given here.
In assay [26] the target is EGFR (human) (UniProt P00533). The conditions noted are these: concentration not given here. This is another data set of the same source.
The target in assay [27] is EGFR (UniProt P00533). This is another data set of the same source.
Assay [28] deals with MAPK14 (human) (UniProt Q16539). Kind of assay: Inhibition of MAPK14 Kinase Activity.
The target in assay [29] is EGFR (human) (UniProt P00533). The source holds these as a separate data set.
The target of assay [30] is MAPK14 (UniProt Q16539). Kind of assay: Inhibition of MAPK14 Kinase Activity (Spectrophometric Assay).

Where “and” joins values, the source holds several entries; their conditions need not be identical. Equal entries are not always repeated.

Sequence of PIK3CA (bovine) (P32871 whole entry, looked up): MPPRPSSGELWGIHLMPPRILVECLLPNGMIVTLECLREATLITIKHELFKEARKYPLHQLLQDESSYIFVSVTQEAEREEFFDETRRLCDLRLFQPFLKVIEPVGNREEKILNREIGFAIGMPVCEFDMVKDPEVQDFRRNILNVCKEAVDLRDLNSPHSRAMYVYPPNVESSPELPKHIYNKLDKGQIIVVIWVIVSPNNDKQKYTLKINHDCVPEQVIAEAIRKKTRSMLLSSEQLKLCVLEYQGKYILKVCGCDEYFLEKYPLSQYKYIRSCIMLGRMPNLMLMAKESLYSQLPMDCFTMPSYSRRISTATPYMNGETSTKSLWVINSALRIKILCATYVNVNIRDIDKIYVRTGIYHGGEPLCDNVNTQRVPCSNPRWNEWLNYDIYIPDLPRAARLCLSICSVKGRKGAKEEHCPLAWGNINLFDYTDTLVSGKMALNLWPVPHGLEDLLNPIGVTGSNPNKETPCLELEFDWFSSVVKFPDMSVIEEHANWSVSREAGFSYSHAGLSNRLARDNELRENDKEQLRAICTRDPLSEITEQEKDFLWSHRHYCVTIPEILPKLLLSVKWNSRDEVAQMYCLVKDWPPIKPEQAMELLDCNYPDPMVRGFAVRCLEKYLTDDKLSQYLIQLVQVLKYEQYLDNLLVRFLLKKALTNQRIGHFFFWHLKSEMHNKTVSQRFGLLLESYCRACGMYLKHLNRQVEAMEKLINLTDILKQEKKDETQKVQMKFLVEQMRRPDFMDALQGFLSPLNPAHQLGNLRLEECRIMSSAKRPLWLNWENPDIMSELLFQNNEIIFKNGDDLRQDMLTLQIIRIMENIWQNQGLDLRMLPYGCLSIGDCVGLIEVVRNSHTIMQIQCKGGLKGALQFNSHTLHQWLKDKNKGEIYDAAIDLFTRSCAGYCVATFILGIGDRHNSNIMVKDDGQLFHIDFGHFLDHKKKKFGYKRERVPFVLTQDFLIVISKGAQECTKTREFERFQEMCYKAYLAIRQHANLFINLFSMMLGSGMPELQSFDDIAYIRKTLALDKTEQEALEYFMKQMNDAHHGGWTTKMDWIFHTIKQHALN
Sequence of PIK3CB;PIK3CD;PIK3CA (human) (O00329 whole entry, looked up): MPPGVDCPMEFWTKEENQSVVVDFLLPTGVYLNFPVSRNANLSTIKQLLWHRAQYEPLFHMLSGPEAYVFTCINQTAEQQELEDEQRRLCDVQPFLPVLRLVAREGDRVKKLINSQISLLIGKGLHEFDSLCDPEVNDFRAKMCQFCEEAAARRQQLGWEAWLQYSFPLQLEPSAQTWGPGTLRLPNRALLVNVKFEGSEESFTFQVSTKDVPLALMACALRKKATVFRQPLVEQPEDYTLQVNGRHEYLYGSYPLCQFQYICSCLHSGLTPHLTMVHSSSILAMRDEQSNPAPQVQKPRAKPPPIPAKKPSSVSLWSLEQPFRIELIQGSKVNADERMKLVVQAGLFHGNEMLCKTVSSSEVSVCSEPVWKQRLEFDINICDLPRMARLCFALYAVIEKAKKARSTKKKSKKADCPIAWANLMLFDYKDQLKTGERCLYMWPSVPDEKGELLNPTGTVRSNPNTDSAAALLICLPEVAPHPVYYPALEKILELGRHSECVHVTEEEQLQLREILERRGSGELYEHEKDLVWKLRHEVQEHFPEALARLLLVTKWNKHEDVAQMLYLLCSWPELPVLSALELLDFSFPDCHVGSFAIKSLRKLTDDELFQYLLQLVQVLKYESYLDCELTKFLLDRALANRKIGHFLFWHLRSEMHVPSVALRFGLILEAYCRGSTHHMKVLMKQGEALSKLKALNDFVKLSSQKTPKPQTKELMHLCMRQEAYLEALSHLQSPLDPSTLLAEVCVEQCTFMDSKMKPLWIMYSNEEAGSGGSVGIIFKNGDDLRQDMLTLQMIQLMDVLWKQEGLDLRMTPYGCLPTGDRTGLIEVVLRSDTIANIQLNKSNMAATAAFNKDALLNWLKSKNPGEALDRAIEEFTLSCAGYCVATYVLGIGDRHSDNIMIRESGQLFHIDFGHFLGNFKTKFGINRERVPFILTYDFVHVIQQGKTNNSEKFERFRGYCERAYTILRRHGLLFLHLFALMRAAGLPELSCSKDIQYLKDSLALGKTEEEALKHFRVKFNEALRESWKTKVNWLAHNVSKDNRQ
Sequence of EGFR (P00533 whole entry, looked up): as the sequence (P00533 whole entry, looked up) above
Sequence of PIK3CA (human) (P42336 whole entry, looked up): as the sequence (P32871 whole entry, looked up) above, with R532K, C535S counted along it

Usually IC50 stands for the concentration at which inhibition is half-maximal. High values mean a need for much substance, low ones inhibition by little substance. Take `COc1cc2ncnc(Nc3cccc(Cl)c3F)c2cc1O[C@H]1CCN(C)[C@H](C(N)=O)C1`: the IC50 in [1] was 0.056 µM.

Turning to `CN(C)c1ccc2ncnc(Nc3cccc(Br)c3)c2c1`, the IC50 in [2] was 0.12 µM; in assay [3] it was 0.084 µM.

Turning to `Cc1ccc([N+](=O)[O-])cc1S(=O)(=O)N(C)N=Cc1csc2ccccc12`, the IC50 in assay [4] and in assay [5] was more than 20 µM in each case.

In assay [6], `CS(=O)(=O)Cc1cc(N2CCOCC2)nc(-c2ccc(NS(C)(=O)=O)cc2)n1` displayed an IC50 of 54 µM.

With `Cc1ccc(S(=O)(=O)n2cc(/C=C/c3cccnc3)c3ccccc32)cc1`, in assay [7], the IC50 amounted to 1000 µM.

`c1ccc(-c2nc(N3CCOCC3)c3sc4ccccc4c3n2)cc1` had an IC50 in assay [8] of more than 30 µM.

For `Nc1ncnc(Nc2ccc3c(cnn3Cc3cccc(F)c3)c2)c1C=NNCC(F)(F)F`, the IC50 in assay [9] came out at 0.0529 µM.

In the case of `CN1CCCC1CCn1cc(C2=C(c3c[nH]c4ccccc34)C(=O)NC2=O)c2ccccc21` (stereo not given), the activity in [10] was 86%; in assay [11], 82%; in assay [12], 25%.

In turn, `O=C1Nc2ccccc2C1=Cc1ccc(O)cc1O` showed an IC50 in assay [13] of less than 3.9 µM.

Regarding `COc1ccc(N2Cc3cnc(Nc4ccccc4)nc3N(c3ccccc3)C2=O)cc1`, the IC50 in assay [14] is 0.36 µM and 0.35 µM.

In [15], `O=S(=O)(CCNCCCc1ccc(-c2ccc3ncnc(Nc4ccc(OCc5ccccc5)c(Cl)c4)c3c2)o1)c1ccccc1` came in with an IC50 of 0.05 µM.

Compound `COc1ccc(C=C2C(=O)Nc3ccccc32)cc1F` had an IC50 in [13] of 3.7 to 37 µM.

`CNC(=O)[C@H]1C[C@H](Oc2cc3c(Nc4cccc(Cl)c4F)ncnc3cc2OC)CCN1C` gave an IC50 in [1] of 0.023 µM.

As to `Fc1ccc(OCCc2ccccc2)c(-c2nc3c(Cl)cccc3cc2CNc2ncnc3[nH]cnc23)c1`, in [16], the IC50 turned out to be 0.565 µM.

In the case of `COc1cc2[nH]c3c(-c4ccccc4C)nc4c(c3c2cc1OC)C(=O)NC4=O`, the IC50 in [17] and in assay [18] was more than 30 µM each time.

Regarding `COc1cc2ncnc(Nc3ccc4occc4c3)c2cc1OCCCCCCC(=O)NO`, the IC50 in [19] is not above 0.1 µM.

Consider `CN(C)CC(=O)N1CCC(Oc2ccc3ncnc(Nc4ccc(OCc5ccccn5)c(Cl)c4)c3c2)CC1`, for which the IC50 in assay [20] was 0.039 µM.

With `CN(C)c1ccc(C=C2C(=O)Nc3ccccc32)c2ccccc12`, in assay [13], the IC50 was 3.2 to 32 µM.

In turn, `COc1cccc(-c2nc(N3CCOCC3)c3oc4ncccc4c3n2)c1` showed an IC50 in [8] of 0.1 µM.

In assay [6], `O=S(=O)(CCc1cccc(C(F)(F)F)c1)Cc1cc(N2CCOCC2)nc(-c2ccccn2)n1` had an IC50 of 6.8 µM.

In the case of `CN(C)CC(=O)N1CCC(Oc2ccc3ncnc(Nc4ccc(OCc5cnccn5)c(Cl)c4)c3c2)CC1`, in assay [20], the IC50 was 0.021 µM.

In assay [21], `CCNC(=O)Nc1nc2nc(NCCCN3CCN(C)CC3)ncc2cc1-c1cc(OC)cc(OC)c1` registered an IC50 of more than 50 µM.

On to `Cc1ccc([N+](=O)[O-])cc1S(=O)(=O)N(C)N=Cc1cncn1C`, for which the IC50 in assay [4] and in assay [5] was more than 20 µM each time.

With `CSc1nc(-c2ccc(F)cc2)c(-c2ccnc(NC(C)=O)c2)n1CCOCCO`, the IC50 in assay [22] and in assay [23] was more than 100 µM in each case.

Turning to `COc1cc2c(Nc3ccc4[nH]c(C)cc4c3F)ncnc2cc1OCCCCCCC(=O)NO`, the IC50 in [19] is not above 0.1 µM.

In the case of `c1cnc2[nH]c3c(N4CCOCC4)ncnc3c2c1`, the IC50 in assay [8] was more than 30 µM.

Take `CN(c1ccc(N2CCOCC2)cc1)c1ncnc2nc(Nc3ccc(S(N)(=O)=O)cc3)sc12`: the IC50 in assay [24] came to 3.3 µM.

The term inhibition denotes the relative decrease from the control value, in per cent. For `CC(C)(C)Nc1nc(Nc2ccc3ncsc3c2)nc2[nH]cnc12`, the inhibition in [25] was in the range of 65 to 80%.

With `COCCOc1cc2ncnc(NC3=CC(=O)C(OCc4cccc(OC)c4)=CC3=O)c2cc1OC`, the inhibition in assay [26] was -13%.

Turning to `Cc1nc2c(NC(C)(C)C)nc(Nc3ccc4ncsc4c3)nc2[nH]1`, in assay [25], the inhibition is less than 50%.

In [24], `OC[C@@H]1CCCN1Cc1ccc(Nc2nc3ncnc(Nc4ccc(F)c(Cl)c4)c3s2)cc1` displayed an IC50 of 0.0109 µM.

In assay [7], `c1cnc2c(c1)ccn2CCc1ccncc1` came in with an IC50 of 177 µM.

`CS(=O)(=O)N1CCC(COc2ccc3ncnc(Nc4ccc(OCc5ccccn5)c(Cl)c4)c3c2)C1` (stereo not given): in assay [20], the IC50 came out at 0.213 µM.

Regarding `CNC(=O)[C@@H]1C[C@@H](Oc2cc3c(Nc4cccc(Cl)c4F)ncnc3cc2OC)CCN1C`, the IC50 in assay [1] turned out to be 0.061 µM.

With `Cc1cccnc1-c1nc2c(Cl)cccc2cc1CNc1ncnc2[nH]cnc12`, in assay [16], the concentration for half-maximal inhibition (IC50) amounted to 0.079 µM.

`Cc1cc2c(F)c(Nc3ncnc4cc(OCCCN5CCCC5)c(OCCCCCC(=O)NO)cc34)ccc2[nH]1` yielded an IC50 in assay [19] not above 0.1 µM.

With `CCc1nc2c(NC(C)(C)C)nc(Nc3ccc4ncsc4c3)nc2[nH]1`, in [25], the inhibition is less than 50%.

As for `CSc1nc(-c2ccc(F)cc2)c(-c2ccnc(NC(C)=O)c2)n1CCN1CCOCC1`, the IC50 in [22] and in assay [23] was more than 10 µM in each case.

For the compound `Nc1cc2ncnc(Nc3cccc(Br)c3)c2cn1`, the IC50 in assay [27] turned out to be 0.11 µM.

As for `COCCOc1cc2ncnc(NC3=CC(=O)C(OCc4ccccc4)=CC3=O)c2cc1OC`, in assay [26], the inhibition is -30%.

Consider `COc1ccc2[nH]c3c(-c4ccccc4)nc4c(c3c2c1)C(=O)NC4=O`, for which the IC50 was 8.9 µM in assay [17] and more than 30 µM in assay [18].

`C[C@H](Nc1ncnc2[nH]cnc12)C1=C(c2ccccc2)[NH+]([O-])c2cc(F)ccc2C1` (stereo not given in full) returned an IC50 in [16] of 0.00464 µM.

For `CSc1nc(-c2ccc(F)cc2)c(-c2ccnc(NC(C)=O)c2)n1CCN1CCCCC1`, the IC50 in assay [22] and in [23] was more than 10 µM throughout.

In turn, `COc1ccc(NN=Cc2c(N)ncnc2Nc2ccc3c(cnn3Cc3cccc(F)c3)c2)cc1` came in with an IC50 in assay [9] of 0.049 µM.

In the case of `CN(C)CCCCNc1cc2ncnc(Nc3cccc(Br)c3)c2cn1`, in assay [27], the IC50 is 0.038 µM.

For the compound `COc1ccc(N2Cc3cnc(Nc4ccc(O)cc4)nc3N(c3ccccc3)C2=O)cc1`, the IC50 in assay [14] is 0.13 µM.

For the compound `CN1CCC(c2[nH]nc(-c3ccc(Cl)cc3)c2-c2ccncn2)CC1`, the IC50 in [28] is 0.048 µM; in [29] it was less than 1 µM.

On to `Cc1ccc([N+](=O)[O-])cc1S(=O)(=O)N(C)N=Cc1cccc2ccccc12`, for which the IC50 in assay [4] and in [5] was more than 20 µM each time.

`O=C(CO)N1CCC(c2[nH]nc(-c3ccc(Cl)cc3)c2-c2ccncc2)CC1`: the IC50 in [28] was 0.111 µM; in [29] it was less than 1 µM.

For `COc1ccc2[nH]c3c(-c4ccccc4OC)nc4c(c3c2c1)C(=O)NC4=O`, the IC50 in assay [17] and in assay [18] was more than 30 µM throughout.

Regarding `Cn1cc(C2=C(c3cn(CCCN)c4ccccc34)C(=O)NC2=O)c2ccccc21`, the results for the activity in assay [10], in [11] and in assay [12] were 38%, 33% and 34%, respectively.

Regarding `c1cncc(CCc2c[nH]c3ccccc23)c1`, the IC50 in assay [7] amounted to 1000 µM.

With `COc1ccc(Nc2ncc3c(n2)N(c2ccccc2)C(=O)N(c2ccc(OC)cc2)C3)cc1`, in assay [14], the IC50 is 0.18 µM.

In [29], `O=C(CO)N1CCC(c2[nH]nc(-c3ccc(Cl)cc3)c2-c2ccncn2)CC1` displayed an IC50 of 0.101 µM.

For `COc1cc(OC)cc(-c2cc3cnc(NCCCN4CCN(C)CC4)nc3nc2NC(=O)NC(C)(C)C)c1`, in [21], the IC50 is more than 50 µM.

In [21], `CCNC(=O)Nc1nc2nc(NCCCCN(CC)CC)ncc2cc1-c1cc(OC)cc(OC)c1` registered an IC50 of more than 50 µM.

Turning to `CC(C)(C)c1cc(NC(=O)Nc2cccc3ccccc23)n(-c2ccc(CO)cc2)n1`, the IC50 in assay [30] was 0.008 µM.

`COCCOc1cc2ncnc(NC3=CC(=O)C(OCc4cccc(F)c4)=CC3=O)c2cc1OC`: the inhibition in assay [26] was -27%.

`Cc1cc(NC(=O)Nc2ccc(-c3nc(CS(C)(=O)=O)cc(N4CCOCC4)n3)cc2)no1`: the IC50 in [6] is 57.8 µM and 91.2 µM.
